Reference: paper PMC8448819, “The Arabidopsis MIK2 receptor elicits immunity by sensing a conserved signature from phytocytokines and microbes” (Nature Communications, 2021)

Assays:
[1] = test system: Arabidopsis WT seedlings; test: ROS assay (luminol), WT seedlings; format: in vivo, Arabidopsis thaliana; conditions: for ROS production, total luminescence (Fig. 2h): WT seedlings; for ROS production, total luminescence (Fig. 3f): WT
Procedure: ROS burst was determined by a luminol-based assay. […] Then, ddH2O was replaced by 200 µL of reaction solution containing 50 µM of luminol, and 10 µg/mL of horseradish peroxidase (Sigma-Aldrich) supplemented with or without 100 nM or 1 μM peptide. Luminescence was measured immediately after adding the solution with a luminometer (Glomax 20/20n, Promega) with a one-second interval for 15 min. The total values of ROS production were indicated as means of the relative light units (RLUs).

[2] = test system: WRKY30, WRKY33 and CYP81F2 expression, mik2 seedlings; test: RT-qPCR of defense genes, mik2 mutants; format: in vivo, Arabidopsis thaliana
[3] = test system: Arabidopsis WT (Col-0) seedlings; format: in vivo, Arabidopsis thaliana
[4] = test system: MPK3, MPK4 and MPK6 phosphorylation, WT seedlings; test: MAPK assay (α-pERK1/2 immunoblot), WT; format: in vivo, Arabidopsis thaliana; conditions: Supplementary Fig. 3i
Procedure: Ten-day-old seedlings grown vertically on ½MS plates were transferred to ddH2O overnight for recovery. Then, ddH2O was replaced by 100 nM peptides for the indicated time.

[5] = test system: bak1-4 and bak1-5/serk4 mutant seedlings; test: Root growth assay, coreceptor mutants; format: in vivo, Arabidopsis thaliana
Excerpt: (§1) The Arabidopsis thaliana accession Columbia-0 (Col-0) was used as wild type (WT). T-DNA insertion mutants of mik2-1 (SALK_061769), mik2-2 (SALK_046987), mik2-like (SALK_112341), and rlk7-3 (SALK_120595) were obtained from the Nottingham Arabidopsis Stock Centre (NASC). The fls2 (SALK_141277), bak1-4, bik1-1/pbl1-1, bak1-5/serk4-1, rbohd mutants, and the transgenic line expressing p35S::GFP have been reported previously[19],[62],[63]. The hae/hsl2 mutant was kindly provided by Dr. Reidunn B. Aalen (University of Oslo, Norway), the pepr1-2/pepr2-2 (pepr1,2) mutant by Dr. Zhi Qi (Inner Mongolia University, China), the scoop12 mutant by Dr. Sébastien Aubourg (INRA, France), a transgenic line expressing p35S::Aequorin by Dr. Marc Knight (Durham University, UK), transgenic line expressing pMYB51::GUS by Dr. Frederick M. Ausubel (Harvard Medical School, USA). […]
(§2) Cold stratified seeds were surface-sterilized with 70% (v/v) ethanol for 5 min and were sown on ½MS plates with or without peptides at indicated concentrations. Ten-day-old seedlings grown on plates vertically in a growth chamber were photographed, and the root lengths of seedlings were measured using Image J (http://rsb.info.nih.gov/ij/).

[6] = test system: mik2-1 seedling roots; test: Microscopy of root meristems, mik2-1; format: in vivo, Arabidopsis thaliana; conditions: mik2-1, 1 µM, 48 h
[7] = test system: bik1/pbl1 mutant seedlings; test: Root growth assay, bik1/pbl1 mutant; format: in vivo, Arabidopsis thaliana; conditions: bik1/pbl1, 1 µM
Excerpt: as §1, §2

[8] = test system: Arabidopsis WT seedling roots; test: Microscopy of root browning and root meristems, WT; format: in vivo, Arabidopsis thaliana
[9] = test system: gene expression, WT Col-0 seedlings; test: RNA-Seq, WT Col-0; format: in vivo, Arabidopsis thaliana; conditions: for gene expression fold change: WT, 1 μM PIP1 vs Ctrl, 1 h
Procedure: Seedlings were then treated with or without 1 μM PIP1 or SCOOP12 for 1 or 6 h and harvested for RNA isolation. Total RNAs (5 μg) from two biological replicates were pooled for cDNA library construction. cDNA library preparation and sequencing were carried out on an Illumina HiSeq 4000 platform with 150-nucleotide pair-end reads in LC-BIO (Hangzhou, China). Total reads were mapped to the Arabidopsis genome (TAIR10; www.arabidopsis.org) with Hisat, and the read counts for every gene were generated with StringTie. The expression levels of genes were calculated by quantifying the cDNA fragments per kilobase of transcript per million fragments mapped (FPKM). Differentially expressed genes (DEGs) between different treatments were defined by fold change of read counts at 1 and 6 h compared to that at 0 h (differential expression analysis using edgeR, fold change ≥ 2 with p-value ≤ 0.01). DEGs were listed in Supplementary Data 2.

[10] = test system: Arabidopsis; conditions: cited from earlier work
Excerpt: Some plant LRR-RKs are pattern recognition receptors (PRRs) that recognize pathogen- or microbe-associated molecular patterns (PAMPs or MAMPs) or damage-associated molecular patterns (DAMPs) and initiate pattern-triggered immunity (PTI)[10]-[13]. […] Despite the differ ... || Plant plasma membrane-resident RKs perceive diverse exogenous and endogenous signals via the extracellular domain and activate intracellular responses through the cytoplasmic kinase domain[1]-[3]. The chimeric receptors with the swapped extracellular and intracellular domains between different RKs have been used to study the specificity of signal perception and signaling activation[48]-[52]. The extracellular domains of RKs determine the ligand-binding specificity[50],[51],[53]. The intracellular kinase domains of different RKs also trigger specific responses. […] It remains unknown why plants have evolved so many SCOOPs and the functional specificity for different SCOOPs. […] SCOOP12, the most studied SCOOP, is highly expressed in roots (Fig. 2b), and was indicated to regulate ro ...

Question: With “PNGDIFTGPSGSGHGGGR [SCOOP10B, synthesized SCOOP peptide corresponding to the SxS motif]” as the substance, how does the “potency in triggering PTI responses” value ([1]; Ca^2+, ROS, MAPK, compared with other SCOOPs) read?
Answer: Its value is “more potent activities than others in triggering PTI responses”.

Question: What about the “ROS production, total luminescence (Fig. 2h)” value (from here on “ROS production … (Fig. 2h)”) ([1]; repeat 1) of the same substance?
Answer: Its value is 9151950.

Question: What about the “ROS production … (Fig. 2h)” value ([1]; repeat 2) of the same substance?
Answer: The value was 10580582.

Question: And the “ROS production … (Fig. 2h)” value ([1]; repeat 3)?
Answer: The value was 7374543.

Question: And the “ROS production, total luminescence (Fig. 3f)” value (shortened to “ROS production … (Fig. 3f)”) ([1]; repeat 1)?
Answer: Its value is 36200000.

Question: What about the “ROS production … (Fig. 3f)” value ([1]; repeat 2) of the same substance?
Answer: The value was 29800000.

Question: And the “ROS production … (Fig. 3f)” value ([1]; repeat 3)?
Answer: The value was 21300000.

Question: And the “CYP81F2 expression (Fig. 3i)” value ([2]; mik2-1, repeat 1)?
Answer: The value was 1.45.

Question: And the “CYP81F2 expression (Fig. 3i)” value ([2]; mik2-1, repeat 2)?
Answer: The value was 1.97.

Question: And the “CYP81F2 expression (Fig. 3i)” value ([2]; mik2-1, repeat 3)?
Answer: Its value is 3.18.

Question: And the “CYP81F2 expression (Fig. 3i)” value ([2]; mik2-1, repeat 4)?
Answer: The value was 1.68.

Question: And the “CYP81F2 expression (Fig. 3i)” value ([2]; mik2-2, repeat 1)?
Answer: Its value is 1.42.

Question: What about the “CYP81F2 expression (Fig. 3i)” value ([2]; mik2-2, repeat 2) of the same substance?
Answer: Its value is 2.13.

Question: And the “CYP81F2 expression (Fig. 3i)” value ([2]; mik2-2, repeat 3)?
Answer: Its value is 3.67.

Question: What about the “CYP81F2 expression (Fig. 3i)” value ([2]; mik2-2, repeat 4) of the same substance?
Answer: Its value is 5.95.

Question: And the “WRKY30, WRKY33 and CYP81F2 expression” value ([2]; mik2 mutants, 1 µM, 1 h, RT-qPCR)?
Answer: The value was “abolished in mik2 mutants”.

Question: What about the “root growth retardation, concentration series, WT” value ([3]; 1 to 100 nM SCOOP10^B) of the same substance?
Answer: The value was “more pronounced with the increased concentrations of SCOOP10^B from 1 to 100 nM”.

Question: What about the “concentration at which still active” value ([3]; in vivo) of the same substance?
Answer: Its value is 1 nM.

Question: And the “root growth inhibition” value ([3]; in vivo)?
Answer: The value was “inhibited root growth to various degrees, with SCOOP10^B and 13 being the most active”.

Question: What about the “MAPK activation in shoots and roots” value [4] of the same substance?
Answer: Its value is “triggered the MAPK activation in both shoots and roots”.

Question: And the “root growth inhibition in bak1-4” value ([5]; bak1-4, 1 µM)?
Answer: Its value is “partially compromised in bak1-4”.

Question: What about the “root growth inhibition in bak1-5/serk4” value ([5]; bak1-5/serk4, 1 µM) of the same substance?
Answer: The value was “compromised in bak1-4 and bak1-5/serk4”.

Question: And the “root meristem distortion in mik2-1” value [6]?
Answer: The value was “not observed in mik2-1”.

Question: What about the “root growth inhibition in bik1/pbl1” value [7] of the same substance?
Answer: The value was “significantly compromised in the bik1/pbl1 mutant”.

Question: And the “root browning” value ([8]; WT seedlings, prolonged treatment)?
Answer: The value was “led to brown roots”.

Question: And the “root meristem distortion” value ([8]; WT, 5-day-old seedlings, 1 µM, 48 h, PI staining)?
Answer: The value was “distorted root meristems”.

Question: Which “overlap of MIK2 kinase domain-upregulated genes with PIP1-upregulated genes in WT” value ([9]; 746 out of 1205 genes of PIP1-treated RLK7^ECD-MIK2^TK/rlk7) does the source give for “RLASGP(OH)SPRGRGH [PIP1, secreted peptide, ligand of RLK7]” here?
Answer: Its value is 61.9%.

Question: And the “expression of SCOOP genes” value ([9]; WT seedlings)?
Answer: Its value is “not in WT plants”.

Question: And the “gene expression fold change” value ([9]; gene AT1G56242)?
Answer: The value was 13807.76.

Question: And the “gene expression fold change” value ([9]; gene AT1G69920)?
Answer: The value was 473.83.

Question: What about the “gene expression fold change” value ([9]; gene AT3G60120) of the same substance?
Answer: Its value is 45141.52.

Question: What about the “BIK1 dependence of responses” value [10] of the same substance?
Answer: The value was “BIK1-independent”.
